Reference: patent US8133903B2, “Methods of use of inhibitors of phosphodiesterases and modulators of nitric oxide, reactive oxygen species, and metalloproteinases in the treatment of peyronie's disease, arteriosclerosis and other fibrotic diseases” (Los Angeles Biomedical Research Institute at Harbor—UCLA …, priority 2003, dated 2012)

Columns and labels:
Assay type in all cases: in vivo
[1] = tested on: TGF-β1-induced fibrotic plaque in the rat tunica albuginea; assay: TGF-β1 rat model of Peyronie's disease, plaque and collagen deposition by Masson staining with QIA; conditions: long-term oral L-NIL, TGF-β1 injected rat
Procedure: TGF-β1 rat model. Male Fisher 344 rats, 9-11 month old purchased from the NIH/NIA colony (Harlan Sprague-Dawley, Inc., San Diego, Calif.) and maintained under controlled temperature and lighting, were anesthetized and injected in the penile TA at the middle of the penis with either vehicle only (saline, group 1) or 0.5 μg recombinant human TGF-β1 (Biotech Diagnostic, Laguna Niguel, Calif., groups 2-5) as disclosed (Ferrini et al., 2002; Vernet et al., 2002). After the injection, groups 1 and 2 were given drinking water while the other groups received water with L-arginine (2.25 g/kg/day, group 3) (Moody et al., 1997), or sildenafil (10 mg/kg/day, group 4) or pentoxifylline (10 mg/kg/day, group 5). Forty-five days later, or as indicated, animals were sacrificed and perfused through the left ventricle with saline followed by 4% formalin ((Ferrini et al., 2002; Vernet et al., 2002). After the penises were excised, the penile skin was denuded by removing the glans and adhering non-crural tissue. The penile shaft was separated from the crura and 2-3 mm transverse slices were cut around the site of the saline or TGF-β1 injection. All tissues were post-fixed overnight in 4% formalin, washed in PBS and stored at 4° C.
In the case of tissue sections, the determinations of the collagen/smooth muscle ratio were carried out with Masson trichrome (Ferrini et al., 2002; Davila et al., 2003b) on adjacent 5 μm paraffin-embedded cross-sections from the human normal tunical or plaque tissues, or from a 2 mm area around the site of injection in the rat saline- and TGF-β1-injected shaft tissues. Other distal sections were obtained along the rat penile shaft.
The quantitation of the staining obtained by either histochemical or immunohisto/cytochemical techniques was performed by computerized densitometry using the ImagePro 4.01 program (Media Cybernetics, Silver Spring, Md.), coupled to an Olympus BHS microscope equipped with a Spot RT digital camera or VCC video camera (Wang et al., 2001; Ferrini et al., 2001a, 2001b; Davila et al., 2003b).

[2] = tested on: collagen I promoter; assay: Collagen I promoter reporter plasmid (β-galactosidase, luminometry) injected into the rat PD-like plaque; conditions: L-NIL treated TGF-β1 rat, vs control TA
Source text: The effect of L-NIL in increasing collagen in the TA of the TGF-β1 rat model may be due to an increase in collagen synthesis, a decrease in its normal breakdown, or both. To determine whether the larger PD plaque in the L-NIL treated rat is due, at least in part, to an increase in collagen I synthesis (the most prevalent collagen protein in the TA), and not simply to the inhibition of collagenolysis by the MMPs, we injected a cDNA plasmid construct of the collagen I promoter driving the expression of a reporter gene (Magee et al., 2002a) into the site of the original TGF-β1 or saline injection, 10 days prior to sacrifice and 35 days after the TGF-β1 injection. This plasmid is an indicator of collagen I transcriptional activity within the rat PD plaque.

[3] = tested on: TGF-β1-induced fibrotic plaque in the rat tunica albuginea; assay: Nitrotyrosine and ROS marker (heme-oxygenase I) detection in the TA of the TGF-β1 rat model
Procedure: (§1) The determinations of iNOS, nitrotyrosine, heme-oxygenase I, PAI-I (Davila et al., 2003b), manganese superoxide dismutase (MnSOD), and CuZn SOD (Cu/Zn SOD) (Martin et al., 1994) were carried out on 5 μm paraffin-embedded adjacent tissue sections, that. were quenched for endogenous peroxidase activity after deparaffinization and rehydration. Sections were blocked with normal goat serum, and incubated with polyclonal IgG antibodies against mouse iNOS (1:500) (Transduction Laboratories, Lexington, KT), nitrotyrosine (1:100) (Upstate, Lake Placid, N.Y.), Mn SOD and Cu/Zn SOD (Oxygen, Portland, Oreg.) (1:800 and 1:500 respectively), heme oxygenase I (Stressgen, San Diego, Calif.), or PAI-1 (Abcam Ltd, Cambridge, UK). For negative controls the first antibodies were replaced by IgG isotype. The detection was based on a secondary anti-rabbit biotinylated antibody (1:200) for iNOS and nytrotyrosine (Calbiochem, La Jolla, Calif.), or anti-sheep biotinylated antibody (1:200) for Cu/Zn and Mn SOD, followed by the ABC complex (1:100) (Calbiochem) and 3,3′ diaminobenzidine (spelling) (DAB) (Sigma, St Louis Mo.). Sections were counterstained with hematoxylin.
The studies with L-arginine detailed in Example 1 show modulation of the size of the PD plaque by NO. […]

[4] = tested on: arterial media of aged Brown Norway rats; assay: Aged rat arterial tree model, Masson staining (SMC/collagen), intima/media thickness and lumen diameter; conditions: for intima media thickness / lumen diameter: OLD + L-NIL
Procedure: (§2) Arterial Tree Rodent Model. Young (3-month) and aged (22-24 month) male Brown Norway rats were obtained from the NIH/NIA colony (Harlan Sprague-Dawley, Inc., San Diego, Calif.), and maintained under controlled temperature and lighting. One half of the aged animals were treated for 3 weeks with L-NIL at 0.1 g/l in the drinking water, while the rest of the animals received plain drinking water. Animals were anesthetized, pretreated with heparin, and perfused through the left ventricle with saline followed by 4% formalin. The abdominal aorta, brachial and femoral neurovascular bundles as well as the penis, denuded of its skin, were removed and post-fixed overnight in 4% formalin, and washed and stored in PBS at 4 C until paraffin embedding.
SMC and collagen fibers within the corporal tissue and vascular tree were estimated by Masson trichromic staining (Sigma Diagnostic, St. Louis, Mo.) (Ferrini et al., 2002; Vernet et al., 2002; Davila et al, […]) in sections adjacent to those used for immunohistochemical staining, followed by image analysis to measure the ratio between SMC (red) and collagen fibers (blue). The results were expressed as red/blue ratios per area (see below). In the arterial tree, the intima/media thickness (IMT), and the diameter of the lumen were also measured.
(§3) For iNOS, nitroyrosine, heme-oxygenase, PAI-1, MnSOD and Cu/Zn SOD determination, at least 6 sections per specimen were analyzed. Each slide assayed had its corresponding negative control. In certain cases, the number of immuno-positive cells was determined as a percentage of the total counterstained nuclei in a computerized grid. In the Masson staining, the ratio between SMC (red) and collagen fibers (blue) was obtained and expressed per area.

[5] = tested on: arterial media of aged Brown Norway rats; assay: Aged rat arterial tree model, immunohistochemistry for iNOS, nitrotyrosine, Cu/Zn SOD, heme oxygenase I, PAI
Procedure: as §2, §1, §3

[6] = tested on: SMC in the media of the penile resistance arteries; assay: Aged rat arterial tree model, TUNEL apoptosis in the media of the penile arteries; conditions: aged rats, L-NIL treatment
Procedure: as §2, §3

CC(=N)NCCCC[C@H](N)C(=O)O [L-NIL, L-iminoethyl-L-lysine]
expansion and thickening of the TA due to collagen fiber deposition [1]: remarkable expansion and thickening of the TA | expression of the reporter β-galactosidase driven by the collagen I promoter (luminometry in tissue extracts) [2]: considerably intensified | ROS levels ([3]; iNOS activity blocked with L-NIL in the TGF-β1 rat model): considerable elevation | peroxynitrite as indicated by nitrotyrosine formation in the TA ([3]; long-term oral L-NIL, TGF-β1 injected rat): considerable increase | collagen fibers within the media of the aorta and the dorsal penile artery ([4]; aged rats, L-NIL for 3 weeks): further increase in the collagen fibers | amount of collagen within the media (SMC/collagen ratio, image analysis) ([4]; aged rats, L-NIL, aorta, femoral, dorsal, with the exception of the bulbourethral artery): further exacerbation in the amount of collagen | intima media thickness ([4]; aorta): 85.2 ± 6.6 μm | intima media thickness ([4]; bulbo urethral): 9.9 ± 0.7 μm | lumen diameter ([4]; bulbo urethral): 47.3 ± 6.6 μm | intima media thickness ([4]; femoral): 51.8 ± 4.6 μm | intima media thickness ([4]; penile dorsal): 23.6 ± 3.3 μm | lumen diameter ([4]; penile dorsal): 105.5 ± 16. μm | effect on PAI expression in the aged media (quantitative image analysis) ([5]; L-NIL): negligible | expression of heme oxygenase I in the penile dorsal artery ([5]; L-NIL): did not induce a further significant change | iNOS expression in the arterial media ([5]; L-NIL): reduction in iNOS expression | peroxynitrite formation (nitrotyrosine) in the arterial media ([5]; L-NIL): reduction in peroxynitrite formation | increase of Cu/Zn SOD (indirect marker of ROS), image analysis ([5]; L-NIL blockade of iNOS activity): 40 to 50% | apoptotic index, dorsal and bulbourethral penile arteries [6]: reduction
